In series [1] the target is T1, CYP1A2 (Homo sapiens, UniProt P05177).
T1 sequence (P05177 1-516): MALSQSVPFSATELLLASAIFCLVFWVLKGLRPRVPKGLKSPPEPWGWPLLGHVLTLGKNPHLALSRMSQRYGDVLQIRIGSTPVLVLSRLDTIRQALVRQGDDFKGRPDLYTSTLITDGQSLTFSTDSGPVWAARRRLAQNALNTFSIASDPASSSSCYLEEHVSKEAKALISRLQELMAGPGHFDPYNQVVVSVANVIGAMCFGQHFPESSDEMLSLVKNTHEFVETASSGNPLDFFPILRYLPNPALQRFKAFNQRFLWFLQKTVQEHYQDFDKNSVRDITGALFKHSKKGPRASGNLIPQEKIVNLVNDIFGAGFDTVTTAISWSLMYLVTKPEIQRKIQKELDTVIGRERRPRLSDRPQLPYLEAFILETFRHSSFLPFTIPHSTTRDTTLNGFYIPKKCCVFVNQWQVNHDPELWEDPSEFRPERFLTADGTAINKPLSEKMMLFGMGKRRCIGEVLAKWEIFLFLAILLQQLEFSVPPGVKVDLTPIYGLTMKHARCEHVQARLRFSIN
The series can be described thus: CYP1A2 enzyme activity, phenacetin O-deethylation (MDI, TDI, DI assays), recombinant baculosomes. To be noted: for Type of CYP1A2 inhibition: concluded from MDI, TDI, DI assays at 1 µM; for activity at 15 min, 1 µM: human. The method, then: (§1) The recombinant baculosomes with hyperexpressed cytochromes P450 (1A2, 2A6, 2C8, and 2D6) and coexpressed NADPH cytochrome P450 reductase and cytochrome b5 were used as a source of enzyme. Baculosomes were commercially obtained from Thermo Fisher Scientific (Waltham, MA, USA), and all other chemicals from Sigma-Aldrich if not otherwise indicated. A 1.0 M solution phosphate buffer of pH 7.4 was prepared in house. NADPH generating system was prepared of 0.1 M glucose-6-phosphate, 10 mg mL^−1 NADP^+, and 1000 IU mL^−1 glucose-6-phosphate dehydrogenase in ratio 100:50:2 (v/v/v).
Phenacetine O-deethylation was used as a marker reaction for monitoring CYP1A2 enzyme activity (Figure 2). Incubations of 100 µL were conducted at the temperature of 37 °C. The pH of the incubation mixture was set at 7.4 using a potassium phosphate buffer (final concentration 50 mM). The total amount of CYP1A2 enzyme was 5 pmol, and the final concentration of substrate was 150 µM. Residual activity was determined by incubating the flavonoid (1 µM) with phenacetine as a substrate for 15 min, with or without preincubation, depending of the type of inhibition assay. Reactions were started by the addition of 15 µL of NADPH generating system, while the reactions were stopped by the addition of 1 mL 1% formic acid in acetonitrile. After centrifugation (10 min, 1900× g), the clear solution was transferred to a vial for HPLC analysis.
HPLC analysis was performed on Agilent 1100 instrument (Santa Clara, CA, USA) coupled with a diode array detector (DAD) on Luna C18 column (4.6 × 150 mm, 3 μm). The gradient method was used for separation. Mobile phase A consisted of water, acetonitrile, and glacial acetic acid in the volume ratio of 90:10:0.1, while mobile phase B contained the same solvents in the ratio 10:90:0.1. The following gradient timetable was used (t/min, %B): (0, 0), (2, 0), (13, 55), (14, 0), (20, 0). The flow rate was 1 mL/min, and chromatograms were recorded at 254 nm. Volume of incubation injected to the column was 15 µL. […] The amount of generated product (acetaminophen) was determined as the area under the curve based on the calibration curve of the standard.
(§2) Three types of experiments were conducted to determine metabolism dependent inhibition, time dependent inhibition, and direct inhibition of CYP1A2, CYP2A6, CYP2C8, and CYP2D6 enzymes.
(§3) To determine metabolism dependent inhibition (MDI assay), the flavonoid was first preincubated with the enzyme with the addition of the generating system for 30 min, after which the marker substrate was added to determine residual enzyme activity (as described above for each enzyme).
(§4) If metabolism dependent inhibition was determined, time dependent inhibition and direct inhibition were tested. Time dependent inhibition (TDI assay) was assessed by preincubating the flavonoid and enzyme, without the generating system, after which residual activity was determined by adding the NADPH generating system along with the substrate (as described above for each enzyme).
(§5) The direct inhibition assay (DI assay) was conducted without preincubation, i.e., the NADPH generating system was added to the incubation mixture containing flavonoid and substrate following the experimental set-up described above for each individual cytochrome P450 enzyme.
(§6) Pure time dependent inhibitors require time to interact with the enzyme. Thus, TDI inhibitors will show a reduction of enzyme activity in assays with preincubations, i.e., the MDI and TDI assays, but not in the DI assay (no preincubation). […] DI inhibitors will reduce enzyme activity in all three assays (MDI, TDI, and DI).
All incubations were conducted in triplicate. The results are expressed as the residual activity of the enzyme, i.e., the percentage of product generated in incubation with the addition of flavonoid in ratio to the control without flavonoid.

In a further series the target is T2, CYP2A6 (Homo sapiens, UniProt P11509).
T2 sequence (P11509 1-494): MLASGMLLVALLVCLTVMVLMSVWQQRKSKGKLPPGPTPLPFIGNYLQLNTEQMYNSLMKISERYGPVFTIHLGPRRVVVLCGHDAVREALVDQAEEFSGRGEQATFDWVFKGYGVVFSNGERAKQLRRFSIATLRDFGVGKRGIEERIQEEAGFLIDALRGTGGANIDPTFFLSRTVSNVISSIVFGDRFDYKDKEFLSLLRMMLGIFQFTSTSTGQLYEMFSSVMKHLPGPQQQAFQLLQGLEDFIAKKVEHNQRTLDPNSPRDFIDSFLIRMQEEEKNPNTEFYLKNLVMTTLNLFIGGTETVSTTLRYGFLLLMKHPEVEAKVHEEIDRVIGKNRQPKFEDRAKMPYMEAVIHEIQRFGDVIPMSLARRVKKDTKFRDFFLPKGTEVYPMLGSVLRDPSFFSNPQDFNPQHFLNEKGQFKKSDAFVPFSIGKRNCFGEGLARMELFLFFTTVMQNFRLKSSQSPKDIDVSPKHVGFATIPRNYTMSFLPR
The series is described as follows: CYP2A6 enzyme activity, coumarin 7-hydroxylation (MDI, TDI, DI assays), recombinant baculosomes. The method, then:
as §1
The aromatic hydroxylation of coumarin at the position 7 was used as a marker reaction for CYP2A6. The incubation conditions were the same as for CYP1A2 enzyme (vide supra) unless otherwise stated. The final concentration of coumarin was 10 µM, while the incubation time was extended to 30 min.
HPLC-DAD analysis was conducted on the same system as the CYP1A2 enzyme with the following modifications: The gradient timetable (t/min, %B) was (0, 20), (1.5, 20), (10, 70), (11, 20), (17, 20), and the detection wavelength was 330 nm. The retention time of the substrate (coumarin) was 7.5 min, while the product (7-hydroxycoumarin) was detected at 4.8 min. The amount of generated product was determined as the area under the curve based on the calibration curve of the standard.
as §2, §3, §4, §5, §6
(§7) All incubations were conducted in triplicate. The results are expressed as the residual activity of the enzyme, i.e., the percentage of product generated in incubation with the addition of flavonoid in ratio to the control without flavonoid. The statistical significance was tested with Student’s t-test in the program R (The R Project for Statistical Computing, Vienna, Austria).

The subject of series [2] is CYP1A2. Also noted: method as in ref 28 (Chang et al.). To be noted: ref 28 (Chang et al.); read-out: Inhibition constant, competitive inhibition of CYP1A2-mediated 7-ethoxyresorufin O-dealkylation; cited from earlier work.
A further series relates to CYP3A4. Also noted: method as in PMID 30301254. To be noted: statistical significance p < 0.1; cited from earlier work.
The target in another series is T3, CYP2C8 (Homo sapiens, UniProt P10632).
T3 construct: purchased Thermo Fisher Scientific; host or cells: baculosomes
T3 sequence (P10632 1-490): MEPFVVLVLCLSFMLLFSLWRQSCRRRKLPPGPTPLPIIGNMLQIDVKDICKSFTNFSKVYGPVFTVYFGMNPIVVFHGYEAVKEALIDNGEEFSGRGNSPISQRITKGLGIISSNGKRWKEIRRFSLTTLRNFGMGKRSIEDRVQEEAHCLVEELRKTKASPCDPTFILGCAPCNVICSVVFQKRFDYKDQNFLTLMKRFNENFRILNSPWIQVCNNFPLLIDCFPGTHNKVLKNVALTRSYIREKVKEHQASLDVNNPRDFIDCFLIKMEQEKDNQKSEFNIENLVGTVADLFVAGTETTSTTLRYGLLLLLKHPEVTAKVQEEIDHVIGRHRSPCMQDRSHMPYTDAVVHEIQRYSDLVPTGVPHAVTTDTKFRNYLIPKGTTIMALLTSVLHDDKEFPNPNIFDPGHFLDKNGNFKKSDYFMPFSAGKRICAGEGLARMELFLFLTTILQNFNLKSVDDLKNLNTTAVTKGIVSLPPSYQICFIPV
The series can be described thus: CYP2C8 enzyme activity, paclitaxel 6α-hydroxylation (MDI, TDI, DI assays), recombinant baculosomes. The series is classed as biochemical. The method, then: as §1
Paclitaxel 6α-hydroxylation was used as a marker reaction for monitoring CYP2C8 enzyme activity (Figure 2). The incubation conditions were the same as for CYP1A2 enzyme (vide supra) unless otherwose stated. The final concentration of paclitaxel was 20 µM, while the incubation time was set to 30 min.
HPLC-DAD analysis was conducted on the same system as the CYP1A2 enzyme with the following modifications: The gradient timetable (t/min, %B) was (0, 50), (2, 50), (10, 90), (11, 50), (17, 50), and the detection wavelength was 227 nm. […] The amount of generated product was determined as the area under the curve based on the calibration curve of the standard.
as §2, §3, §4, §5, §6, §7

A further series deals with rat liver microsomes. Also noted: method as in ref 24 (Siess et al.). The settings on record: ref 24 (Siess et al.); cited from earlier work.
For series [3], the system named is CYP1A2. Also noted: method as in ref 23 (Lee et al.). To be noted: ref 23 (Lee et al.); cited from earlier work.
In series [4] the test system is CYP1A2. The arrangement: method as in ref 25 (Kim et al.). To be noted: recombinant cytochrome P450 system; ref 25 (Kim et al.); cited from earlier work.

By inhibition is commonly meant the relative decrease from the control value, in per cent.

`COc1cc(-c2oc3cc(O)cc(O)c3c(=O)c2O)ccc1O` [isorhamnetin]: the “Inhibition of CYP1A2 activity” value at CYP1A2 [1] (1 µM flavonoid) is given as “inhibited”. Besides, the “Type of CYP1A2 inhibition” value on CYP1A2 [1] was “reversible inhibitor”. Moreover, at CYP1A2 [1] (pH 7.4), the activity at 15 min, 1 µM worked out at 8 ± 2%. At CYP2A6 (1 µM flavonoid), the “Inhibition of CYP2A6 enzyme activity” value is listed as “inhibited”. For the same compound, at CYP2A6 (human, pH 7.4), the inhibition at 30 min, 1 µM was determined as 16 ± 5%. Also, in the series on CYP1A2 [2], the Ki was 140 nM. Besides, the “Inhibition of CYP3A4 metabolic activity” value in the series with CYP3A4 is given as “inhibition”.

In the case of `O=c1cc(-c2ccccc2)oc2cc(O)cc(O)c12` [chrysin], at CYP1A2 [1] (1 µM flavonoid), the “Inhibition of CYP1A2 activity” value is listed as “inhibited”. For the same compound, the “Residual CYP1A2 enzyme activity, time dependent inhibition (TDI) assay” value at CYP1A2 [1] (1 µM flavonoid, preincubation without generating system) is “complete inhibition”. For the same compound, the “Type of CYP1A2 inhibition” value on CYP1A2 [1] was “reversible”. Further, the activity at 15 min, 1 µM at CYP1A2 [1] (pH 7.4, probe phenacetin (O-deethylation), 150 µM) is 18 ± 4%; at CYP1A2 [1] (pH 7.4, probe phenacetin (O-deethylation), 150 µM, Residual CYP1A2 enzyme activity, direct inhibition (DI) assay, 1 µM flavonoid, no preincubation), 23 ± 6%. The “Inhibition of CYP2C8 paclitaxel 6-α-hydroxylation” value on CYP2C8 (1 µM flavonoid) was “inhibition”. In addition, at CYP2C8 (1 µM flavonoid, TDI assay), the “CYP2C8 enzyme activity in the TDI assay” value was “reduction of enzyme activity was not observed”. Also, at CYP2C8 (concluded from MDI, TDI, DI assays at 1 µM), the “Type of CYP2C8 inhibition” value was “mixed reversible and irreversible inhibitors”. Moreover, the “Type of inhibition of ethoxy- and pentoxy-resorufin dealkylation” value with rat liver microsomes is “mix type reversible”. Further, the “Type of CYP1A2 inhibition, N3-demethylation of caffeine” value with CYP1A2 [3] is recorded as “reversible, competitive inhibition”. Besides, the “Type of CYP1A2 inhibition, ethoxyresorufin O-deethylation” value with CYP1A2 [4] is “reversible mix inhibition”. Moreover, the “Inhibition of CYP3A4 metabolic activity” value with CYP3A4 is “inhibition”.

Source of the values: paper PMC6749521, “The Effect of Flavonoid Aglycones on the CYP1A2, CYP2A6, CYP2C8 and CYP2D6 Enzymes Activity” (Molecules, 2019).
